Experimental findings from patent publication US7312225B2, “Macrocyclic pyrimidines, their production and use as pharmaceutical agents” (Bayer Schering Pharma AG, priority 2002, dated 2007) are described below.

The test system of experiment [1] is H460. In words: Proliferation assay H460. Conditions: Homo sapiens, NCI-H460, 96 h; Table II; 4 days incubation, crystal violet. Format: cell-based. An excerpt:
(§1) Cultivated human tumor cells (MCF7, […] human breast cancer cells, relative to ATCC HTB22; NCI-H460, human non-small-cell lung cancer cells, ATCC HTB-177, HCT 116, human colon cancer cells, ATCC CCL-247; DU 145, hormone-independent human prostate cancer cells, ATCC HTB-81; MaTu-MDR, hormone-independent, multiple pharmaceutical agent-resistant human breast cancer cells, EPO-GmbH, Berlin) were flattened out at a density of about 5000 cells/measuring point, depending on growth rates of the respective cells in a 96-well multititer plate in 200 μl of the corresponding growth medium. After 24 hours, the cells of one plate (zero-point plate) were colored with crystal violet (see below), while the medium of the other plates was replaced by fresh culture medium (200 μl), to which the test substances were added at various concentrations (0 μmol, as well as in the range of 0.01-30 μmol; the final concentration of the solvent dimethyl sulfoxide was 0.5%). The cells were incubated for 4 days in the presence of test substances. The cell proliferation was determined by coloring the cells with crystal violet: the cells were fixed by adding 20 μl/measuring point of an 11% glutaric aldehyde solution for 15 minutes at room temperature. After three washing cycles of the fixed cells with water, the plates were dried at room temperature. The cells were colored by adding 100 μl/measuring point of a 0.1% crystal violet solution (pH was set at 3 by adding acetic acid). After three washing cycles of the colored cells with water, the plates were dried at room temperature. The dye was dissolved by adding 100 μl/measuring point of a 10% acetic acid solution. The extinction was determined by photometry at a wavelength of 595 nm. The change of cell growth, in percent, was calculated by standardization of the measured values to the extinction values of the zero-point plate (=0%) and the extinction of the untreated (0 μm) cells (=100%).

For experiment [2], the system named is MaTu-ADR. Briefly: Proliferation assay MaTu-ADR. The note with it: Homo sapiens, 96 h, read-out: Proliferation IC50 MaTu-ADR. Format: cell-based.
From the text: as §1

The target in experiment [3] is T1, CDK1/CycB (Homo sapiens, UniProt P06493).
T1 construct: GST; purchased ProQinase GmbH, Freiburg; host or cells: baculovirus-infected insect cells (Sf9)
T1 sequence (P06493 whole entry): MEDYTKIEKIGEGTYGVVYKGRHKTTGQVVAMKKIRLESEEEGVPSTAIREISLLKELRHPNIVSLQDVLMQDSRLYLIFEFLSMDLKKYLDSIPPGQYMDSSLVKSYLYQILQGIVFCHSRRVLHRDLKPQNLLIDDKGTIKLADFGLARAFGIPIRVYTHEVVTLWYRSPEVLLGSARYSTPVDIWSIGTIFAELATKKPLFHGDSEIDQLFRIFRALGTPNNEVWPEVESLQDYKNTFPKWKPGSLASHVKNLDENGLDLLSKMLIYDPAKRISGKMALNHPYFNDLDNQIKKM
T1 sequence (P14635 whole entry partner): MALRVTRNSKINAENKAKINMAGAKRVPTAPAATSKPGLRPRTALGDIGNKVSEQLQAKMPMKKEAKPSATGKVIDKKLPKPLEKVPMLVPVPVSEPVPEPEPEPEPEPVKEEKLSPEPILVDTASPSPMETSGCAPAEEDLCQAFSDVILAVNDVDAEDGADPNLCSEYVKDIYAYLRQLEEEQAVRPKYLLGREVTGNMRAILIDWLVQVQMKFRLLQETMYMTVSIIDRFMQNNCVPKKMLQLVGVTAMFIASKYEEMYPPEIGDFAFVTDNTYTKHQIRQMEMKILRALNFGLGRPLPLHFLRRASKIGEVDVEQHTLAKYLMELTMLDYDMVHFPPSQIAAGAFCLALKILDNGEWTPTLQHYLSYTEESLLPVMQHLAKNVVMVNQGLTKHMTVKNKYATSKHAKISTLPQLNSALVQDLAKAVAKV
Briefly: CDK1/CycB kinase assay. Format: biochemical. The note with it: Table I. As to the method:
Recombinant CDK1- and CycB-GST fusion proteins, purified from baculovirus-infected insect cells (Sf9), were purchased from ProQinase GmbH, Freiburg. Histone IIIS, which was used as a kinase substrate, is commercially available from the Sigma Company.
CDK1/CycB (200 ng/measuring point) was incubated for 15 minutes at 22° C. in the presence of various concentrations of test substances (0 μm, as well as within the range of 0.01-100 μm) in assay buffer [50 mmol of tris/HCl, pH 8.0, 10 mmol of MgCl2, 0.1 mmol of Na ortho-vanadate, 1.0 mmol of dithiothreitol, 0.5 μm of adenosine triphosphate (ATP), 10 μg/measuring point of histone IIIS, 0.2 μCi/measuring point of 33P-gamma ATP, 0.05% NP40, 12.5% dimethyl sulfoxide]. The reaction was stopped by adding EDTA solution (250 mmol, pH 8.0, 14 μl/measuring point).
From each reaction batch, 10 μl was applied to P30 filter strips (Wallac Company), and non-incorporated 33P-ATP was removed by three washing cycles of the filter strips for 10 minutes each in 0.5% phosphoric acid. After the filter strips were dried for 1 hour at 70° C., the filter strips were covered with scintillator strips (MeltiLex™ A, Wallac Company) and baked for one hour at 90° C. The amount of incorporated 33P (substrate phosphorylation) was determined by scintillation measurement in a gamma-radiation measuring device (Wallac).

The target of experiment [4] is T2, VEGF Receptor tyrosine kinase-2 (Homo sapiens, UniProt P35968).
T2 construct: GST; made in house; host or cells: baculovirus-infected insect cells (Sf9)
T2 sequence (P35968 20-1356): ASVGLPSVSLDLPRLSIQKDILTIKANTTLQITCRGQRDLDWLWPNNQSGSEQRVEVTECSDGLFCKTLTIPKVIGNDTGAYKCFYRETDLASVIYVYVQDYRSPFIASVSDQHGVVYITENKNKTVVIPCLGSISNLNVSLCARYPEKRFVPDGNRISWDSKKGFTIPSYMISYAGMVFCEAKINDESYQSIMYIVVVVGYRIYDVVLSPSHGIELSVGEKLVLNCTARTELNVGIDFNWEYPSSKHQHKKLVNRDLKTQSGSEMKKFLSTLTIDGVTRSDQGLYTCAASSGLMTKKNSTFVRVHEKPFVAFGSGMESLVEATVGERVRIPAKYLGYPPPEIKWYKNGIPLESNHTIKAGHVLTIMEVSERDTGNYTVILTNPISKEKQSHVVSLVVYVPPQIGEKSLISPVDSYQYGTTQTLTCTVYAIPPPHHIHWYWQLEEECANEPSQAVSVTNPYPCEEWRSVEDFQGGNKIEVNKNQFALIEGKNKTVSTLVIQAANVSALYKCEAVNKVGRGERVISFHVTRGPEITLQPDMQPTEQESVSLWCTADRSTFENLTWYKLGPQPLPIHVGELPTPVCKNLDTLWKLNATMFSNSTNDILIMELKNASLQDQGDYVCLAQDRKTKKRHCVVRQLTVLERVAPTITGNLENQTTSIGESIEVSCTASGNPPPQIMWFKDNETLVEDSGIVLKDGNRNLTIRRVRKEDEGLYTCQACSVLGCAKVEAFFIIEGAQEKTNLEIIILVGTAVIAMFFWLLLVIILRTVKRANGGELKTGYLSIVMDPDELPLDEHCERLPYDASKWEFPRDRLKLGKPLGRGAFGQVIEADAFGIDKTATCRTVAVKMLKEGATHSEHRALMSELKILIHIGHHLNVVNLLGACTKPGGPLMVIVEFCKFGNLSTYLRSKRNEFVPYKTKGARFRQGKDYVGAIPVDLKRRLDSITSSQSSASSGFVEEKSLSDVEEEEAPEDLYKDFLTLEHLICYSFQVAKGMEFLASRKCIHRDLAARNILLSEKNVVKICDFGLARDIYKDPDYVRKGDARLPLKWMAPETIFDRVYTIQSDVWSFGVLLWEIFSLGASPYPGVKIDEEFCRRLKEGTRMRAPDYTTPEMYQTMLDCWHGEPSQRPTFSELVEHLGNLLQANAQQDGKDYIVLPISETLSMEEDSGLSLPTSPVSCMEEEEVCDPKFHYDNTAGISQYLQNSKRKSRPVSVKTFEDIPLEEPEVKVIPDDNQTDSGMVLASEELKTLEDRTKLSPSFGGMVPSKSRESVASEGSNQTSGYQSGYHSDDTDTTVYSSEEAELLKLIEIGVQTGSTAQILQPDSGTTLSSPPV
In words: VEGF Rezeptor-2 kinase assay. Format: biochemical. The note with it: Table I; read-out: VEGF-R2 IC50. Here is the method: VEGF Rezeptor-2 Kinase Assay
Recombinant VEGF Receptor tyrosine kinase-2 was purified as GST-fusion protein from baculovirus-infected insect cells (Sf9). Poly-(Glu4Tyr), which was used as a kinase substrate, was purchased from the Sigma Company.
VEGF Receptor tyrosine kinase (90 ng/measuring point) was incubated for 10 minutes at 22° C. in the presence of various concentrations of test substances (0 μmol, as well as within the range of 0.001-30 μM) in 30 μl of assay buffer [40 mmol of Tris/HCl […], 10 mmol of MgCl2, 1 mmol of MnCl2, 3 μmol of Na orthovanadate, 1.0 mmol of dithiothreitol, 8 μmol of adenosine trisphosphate (ATP), 27 μg/measuring point of poly-(Glu4Tyr), 0.2 μCi/measuring point of ^33P-gamma ATP, 1% dimethyl sulfoxide]. The reaction was stopped by adding EDTA solution (250 mmol, pH 7.0, 10 μl/measuring point).
From each reaction batch, 10 μl was applied to P30 filter strips (Wallac Company), and non-incorporated 33P-ATP was removed by subjecting the filter strips to three washing cycles for 10 minutes each in 0.5% phosphoric acid. After the filter strips were dried for 1 hour at 70° C., the filter strips were covered with scintillator strips (MeltiLex™ A, Wallac Company) and baked on for 1 hour at 90° C. The amount of incorporated 33P (substrate phosphorylation) was determined by scintillation measurement in a gamma-radiation measuring device (Wallac).

The subject of experiment [5] is DU145. Briefly: Proliferation assay DU145. Format: cell-based. Conditions: Homo sapiens, DU-145, 96 h; Table II; 4 days incubation, crystal violet.
From the text: as §1

The subject of experiment [6] is HCT116. Briefly: Proliferation assay HCT116. Format: cell-based. The note with it: Homo sapiens, HCT-116, 96 h; Table II; 4 days incubation, crystal violet.
From the text: as §1

In experiment [7] the target is T3, CDK2/CycE (Homo sapiens, UniProt P24941).
T3 construct: GST; purchased ProQinase GmbH, Freiburg; host or cells: baculovirus-infected insect cells (Sf9)
Briefly: CDK2/CycE kinase assay. Format: biochemical. Here is the method: Recombinant CDK2- and CycE-GST-fusion proteins, purified from baculovirus-infected insect cells (Sf9), were purchased from ProQinase GmbH, Freiburg. Histone IIIS, which was used as a kinase substrate, was purchased from the Sigma Company.
The reaction was stopped by adding EDTA solution (250 mmol, pH 8.0, 14 μl/measuring point).
From each reaction batch, 10 μl was applied to P30 filter strips (Wallac Company), and non-incorporated ^33P-ATP was removed by subjecting the filter strips to three washing cycles for 10 minutes each in 0.5% phosphoric acid. After the filter strips were dried for one hour at 70° C., the filter strips were covered with scintillator strips (MeltiLex™ A, Wallac Company) and baked for one hour at 90° C. The amount of incorporated ^33P (substrate phosphorylation) was determined by scintillation measurement in a gamma-radiation measuring device (Wallac).

Experiment [8] deals with MCF7. Briefly: Proliferation assay MCF7. Format: cell-based. Conditions: Homo sapiens, MCF7, 96 h, 4 days incubation, crystal violet.
From the text: as §1

[9] abbreviates: Table II, 4 days incubation, crystal violet.
Setting [10] is: Table I, read-out: CDK2/CycE IC50.
[11] abbreviates: Table II, read-out: Inhibition IC50 CDK2/CycE.
Where [12] appears, read: Table II, read-out: Proliferation IC50 MCF7.

Molecules are shown by their SMILES. Counter-ions that a name gives are not always drawn. Like-named read-outs stand apart in the source and are kept apart here.

In the case of `O=S1(=O)NCCC(CO)Nc2nc(ncc2Br)Nc2cccc1c2` (racemic) [Example 1.3, rac-1^5-Bromo-4-thia-2,5,9-triaza-1(2,4)-pyrimidina-3(1,3)-benzenacyclonaphane-8-methanol-4,4-dioxide Hydrochloride], the IC50 in experiment [1] was 1700 nM; in experiment [2] (setting [9]), 2800 nM; in experiment [3] it was 28 nM; in experiment [4], less than 10 nM; in experiment [5], 2900 nM; in experiment [6] it was 900 nM. The IC50 in experiment [7] (setting [10]) was determined as 23 nM; in experiment [7] (setting [11]), 23 nM; in experiment [8] (Table I, read-out: MCF7 IC50), 1000 nM; in experiment [8] (setting [12]) it was 1000 nM.
As for `O=S1(=O)NCCCNc2nc(ncc2Br)Nc2cccc1c2` [Example 1.1, 1^5-Bromo-4-thia-2,5,9-triaza-1(2,4)-pyrimidina-3(1,3)-benzenacyclononaphane-4,4-dioxide], the IC50 in experiment [1] amounted to 300 nM; in experiment [2], 120 nM; in experiment [3], 20 nM; in experiment [4], 40 nM; in experiment [5] it was 2200 nM; in experiment [6] it was 200 nM. Besides, the IC50 in experiment [8] (Table I, read-out: MCF7 IC50) was determined as 200 nM.
`Nc1cc2cc(c1)S(=O)(=O)NCCCNc1nc(ncc1Br)N2` [Example 1.4, 1^5-Bromo-4-thia-2,5,9-triaza-1(2,4)-pyrimidina-3(1,3)-benzenacyclononaphan-3^5-amine-4,4-dioxides]: the IC50 in experiment [1] was 200 nM; in experiment [2] (setting [9]) it was 100 nM; in experiment [4], 11 nM; in experiment [5], 700 nM; in experiment [6] it was less than 100 nM; in experiment [8] (Table I, read-out: MCF7 IC50), 400 nM. Further, the IC50 in experiment [8] (setting [12]) came to 400 nM.
As to `O=[N+]([O-])c1cc2cc(c1)S(=O)(=O)NCCCNc1nc(ncc1Br)N2` [Example 1.5, 1^5-Bromo-3^5-nitro-4-thia-2,5,9-triaza-1(2,4)-pyrimidina-3(1,3)-benzenacyclononaphane-4,4-dioxide hydrochloride], the IC50 is 600 nM in experiment [1]; 600 nM in experiment [2] (setting [9]); 28 nM in experiment [3]; 69 nM in experiment [4]; 1300 nM in experiment [5]; 400 nM in experiment [6]. Also, the IC50 in experiment [8] (Table I, read-out: MCF7 IC50) came out at 900 nM; in experiment [8] (setting [12]), 900 nM.
Regarding `NS(=O)(=O)c1ccc2cc1OCCCCNc1nc(ncc1Br)N2` [Example 8.0, 1^5-Bromo-4-oxa-2,9-diaza-1(2,4)-pyrimidina-3(1,3)-benzenacyclononaphane-3^4-sulfonamide], the IC50 in experiment [1] turned out to be 500 nM; in experiment [2] (setting [9]) it was 400 nM; in experiment [3], 80 nM; in experiment [4], 140 nM; in experiment [5] it was 500 nM; in experiment [6] it was 400 nM. The IC50 came out at 130 nM in experiment [7] (setting [10]); 130 nM in experiment [7] (setting [11]); 1300 nM in experiment [8] (Table I, read-out: MCF7 IC50); 1300 nM in experiment [8] (setting [12]).
